We go through two compounds from ChEMBL document CHEMBL3638669, “Substituted 2-(chroman-6-yloxy)-thiazoles and their use as pharmaceuticals” (2014).

The term IC50 denotes the concentration that inhibits the measured activity by half.

For test [1], the target named is T1, Sodium/calcium exchanger 1 (Homo sapiens, UniProt P32418). As to the kind of experiment: Forward Mode Assay: The assay is based on the monitoring of intracellular Ca2+concentrations using the PBX Calcium Assay Kit from BD (Becton, Dickinson and Company) with calcium indicator dye 51-9000177BKa (BD, 640177), CHO cells expressing NCX1 were loaded with the dye, and after a preincubation period with the test compound, lonomycin (Calbiochem, 407950) was added. Ionomycin is an ionophor for Ca2+ions mediating an increase of intracellular Ca2+ions. Consequently, intracellular Ca2+ions are exchanged against extracellular Na+ions (Ca2+efflux, forward mode). The decrease of intracellular Ca2+ions was detected by measuring the fluorescence of the calcium indicator dye at a wavelength of 520 nm by a FLIPR device.Briefly, similarly as for the reverse mode, for the forward mode transport assay 18000 cells per well were seeded into a 96 well microplate (Corning COSTAR 3904) and incubated overnight in culture medium (cf. above). A total volume of 100 ul medium per well was used. It is filed as cell-based.

Test [2] concerns the target T1, Sodium/calcium exchanger 1. Nature of the test: Reverse Mode Assay: The assay is based on the monitoring of intracellular Ca2+concentrations using the calcium-sensitive dye Fluo-4. CHO cells expressing NCX1 were loaded with the dye by means of the acetoxymethyl ester Fluo-4 AM (Invitrogen, F14202), which is cleaved intracellularly by esterase activity to yield the charged species of free Fluo-4. After an preincubation period with the test compound, Gramicidine (Sigma, G5002) was added. Gramicidine is an ionophor for Na+ions mediating an increase of intracellular Na+ions. Consequently, intracellular Na+ions are exchanged against extracellular Ca2+ions (Ca2+influx, reverse mode). The intracellular elevation of Ca2+ ions was detected by measuring the fluorescence of Fluo-4 at a wavelength of 520 nm by a FLIPR device.Briefly, for the reverse mode transport assay 18000 cells per well were seeded into a 96 well microplate (Corning COSTAR 3904) and incubated overnight in culture medium (1x Nut Mix F12 (Ham) (Gibco, 21765-029); 10% (v/v) fetal calf serum. The class given is cell-based.

T1 sequence (P32418 36-973 limits assumed): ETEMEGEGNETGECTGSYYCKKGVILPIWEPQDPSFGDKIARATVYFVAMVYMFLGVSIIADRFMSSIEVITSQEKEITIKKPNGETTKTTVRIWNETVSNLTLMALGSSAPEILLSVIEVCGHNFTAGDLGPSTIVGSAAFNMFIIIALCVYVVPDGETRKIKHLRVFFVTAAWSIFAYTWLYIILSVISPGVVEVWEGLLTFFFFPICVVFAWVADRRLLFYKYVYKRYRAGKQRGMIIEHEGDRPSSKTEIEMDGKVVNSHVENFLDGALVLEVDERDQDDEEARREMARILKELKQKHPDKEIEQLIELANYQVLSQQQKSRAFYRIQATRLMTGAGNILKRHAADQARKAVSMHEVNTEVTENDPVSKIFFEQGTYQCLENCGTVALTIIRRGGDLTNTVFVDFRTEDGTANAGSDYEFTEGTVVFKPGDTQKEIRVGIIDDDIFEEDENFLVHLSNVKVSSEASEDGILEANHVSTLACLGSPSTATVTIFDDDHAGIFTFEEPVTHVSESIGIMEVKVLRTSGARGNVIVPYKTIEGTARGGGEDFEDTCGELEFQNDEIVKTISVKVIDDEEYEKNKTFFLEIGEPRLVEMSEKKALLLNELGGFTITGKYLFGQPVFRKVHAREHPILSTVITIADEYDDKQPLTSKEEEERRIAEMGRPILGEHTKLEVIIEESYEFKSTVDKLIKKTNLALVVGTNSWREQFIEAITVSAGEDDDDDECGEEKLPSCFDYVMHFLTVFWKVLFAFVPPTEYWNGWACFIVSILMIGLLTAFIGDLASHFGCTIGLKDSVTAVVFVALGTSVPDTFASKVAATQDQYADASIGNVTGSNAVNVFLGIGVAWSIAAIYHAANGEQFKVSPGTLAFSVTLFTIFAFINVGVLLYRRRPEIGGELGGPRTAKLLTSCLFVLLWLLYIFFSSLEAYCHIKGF

For `Cc1ccccc1C1CCc2cc(Oc3ncc(C(=O)NCc4ccnc(Cl)c4)s3)ccc2O1` (configuration not stated), in test [1], the IC50 amounted to 1900 nM.

Turning to `NCCCNC(=O)c1cnc(Oc2ccc3c(c2)CC[C@@H](c2ccccc2)O3)s1`, in test [2], the 50% inhibitory concentration (IC50) was found to be 300 nM.
